The target of the assay is Human neutrophil elastase (Homo sapiens (Human), UniProt P08246). The experiment in a line: Human Neutrophil Elastase Assay. Type of assay: biochemical. The settings on record: substrate MeOSuc-Ala-Ala-Pro-Val-AMC 250 μM, fluorescence, pH 7.5. How it is done: Human Neutrophil Elastase Assay
All other materials were of the highest grade commercially available.
The following buffers were used: Compound buffer: 100 mM Tris, 500 mM NaCl, adjusted to pH 7.5; Assay buffer: 100 mM Tris, 500 mM NaCl, adjusted to pH 7.5, containing 0.01% BSA.
Assay conditions: Test compounds were prediluted in DMSO and subsequently in compound buffer (5% DMSO final). […] After inactivation of the enzyme, fluorescence intensities were measured at 380 nm excitation and 460 nm emission wavelengths.
Each plate contains wells with a high value control (DMSO+enzyme+substrate) and wells with a low value control (DMSO+inactivated enzyme+substrate). IC50 values were estimated using a sigmoidal concentration response curve with variable slope. Means of low values were taken as 0%, means of high values as 100%. IC50 values of selected compound in the Neutrophil Elastase assay: […]

Chain of Human neutrophil elastase (P08246 30-247): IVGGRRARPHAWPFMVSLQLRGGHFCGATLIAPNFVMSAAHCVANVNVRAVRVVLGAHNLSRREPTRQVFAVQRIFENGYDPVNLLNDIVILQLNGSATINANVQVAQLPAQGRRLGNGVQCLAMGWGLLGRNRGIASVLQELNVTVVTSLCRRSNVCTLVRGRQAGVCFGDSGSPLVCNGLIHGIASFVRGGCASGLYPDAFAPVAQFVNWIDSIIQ

Turning to `Cc1ccc(-n2cc(C(=O)NCc3ccc(S(C)(=O)=NC#N)cc3)c(=O)c(-c3cccc(C(F)(F)F)c3)c2C)cn1` (stereo not drawn) [Example 58], the IC50 is 4.7 nM.
The result for `Cc1c(-c2cccc(C(F)F)c2)c(=O)c(C(=O)NCc2ccc(S(C)(=O)=NS(C)(=O)=O)cc2)cn1C(C)C` (stereo not drawn) [Example 35] reads 8 nM.
The result for `Cc1c(-c2ccnc(C(F)(F)F)c2)c(=O)c(C(=O)NCc2ccc(S(C)(=O)=NC#N)cc2)cn1C(C)C` (racemic) [Example 3, 1-Isopropyl-2-methyl-4-oxo-2′-trifluoromethyl-1,4-dihydro-[3,4′]-bipyridinyl-5-carboxylic acid 4-(N-cyano-S-methylsulfonimidoyl)-benzylamide] reads 4.7 nM.

Usually IC50 stands for the point on the concentration scale where inhibition reaches its midpoint. A low value points to greater potency.

For the origin of these results see US9346794B1, “Substituted 4-pyridones and their use as inhibitors of neutrophil elastase activity” (Boehringer Ingelheim International GmbH, priority 2012, dated 2016).
